Reference: patent EP4786487A1, “PEPTIDE” (Peptidream Inc, priority 2023, dated 2025)
Starred links: 1 amine or outer side, 2 acyl side, 3 side chain; linkers in the order of their positions; H or OH if unused. Positions of bridges follow the written chain, without caps; N, C: chain ends. Non-standard residues stand in square brackets, D forms with d. Residues, ends and D or L forms follow the SMILES beside them. Phe(3-OCH2COOH) = N[C@@H](Cc1cccc(OCC(=O)O)c1)C(=O)O; Phe(4-COOH) = N[C@@H](Cc1ccc(C(=O)O)cc1)C(=O)O; Gly(N(CH2)3COOH) = O=C(O)CCCNCC(=O)O; X1 = CCCCCCC[C@H](N[*:1])C(=O)[*:2]; NMeF = CN[C@@H](Cc1ccccc1)C(=O)O; NMeA = CN[C@@H](C)C(=O)O

Key:
Type in all cases: cell-based
Myostatin [1] = target: T1, Myostatin (Homo sapiens, UniProt O14793); test: Reporter gene assay for myostatin signaling in HEK-Blue TGF-β Cells, myostatin; conditions: myostatin 3 ng/mL
T1 construct: active myostatin (also called mature myostatin) is a homodimer consisting of two C-terminal growth factor domains; purchased R&D systems 788-G8/CF
T1 sequence (O14793 267-375): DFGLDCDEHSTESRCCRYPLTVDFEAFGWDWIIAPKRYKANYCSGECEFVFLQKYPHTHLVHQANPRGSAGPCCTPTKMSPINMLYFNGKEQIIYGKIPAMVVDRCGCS
Method: (§1) In this Example, the in vitro activity of the peptide Myostatin_99_v145 (SEQ ID NO: 30) was evaluated using a reporter gene assay for myostatin signaling.
(§2) HEK-Blue (trademark) TGF-β Cells (hkb-tgfbv2, InvivoGen) were cultured in DMEM High glucose GlutaMAX (10569010, Thermo) containing 10% FBS (Heat-inactivated FBS QUALIFIED, 10270-106, Gibco), […] Normocin (ant-nr-05, InvivoGen), […] Zeocin (ant-zn-05, InvivoGen), and 50 µg/mL Gentamicin (11980-14, Nacalai Tesque). The cultured HEK-Blue (trademark) TGF-β Cells were suspended in an assay medium containing DMEM High glucose GlutaMAX, 50 µg/mL Gentamicin, and 1% bovine serum albumin (A7030, Sigma). The cells were seeded at 4 × 10^4 cells/well onto a 96-well plate (356461, Corning), namely BioCoat poly-D-lysine multi-well plate, and allowed to stand for 30 min.
(§3) A 4-fold dilution series of the peptide, namely Myostatin_99_v145 (SEQ ID NO: 30), synthesized according to Example 1, the final concentration of which was from 0.006 nmol/L up to a maximum concentration of 0.1 µmol/L for the myostatin inhibitory activity test, was added to a 96-well U-bottom Non-Binding MicroPlate (650901, Greiner). For the GDF-11 or activin A inhibitory activity test, a 4-fold dilution series, the final concentration of which was from 0.12 nmol/L to a maximum concentration of 2 µmol/L, was added to a 96-well U-bottom Non-Binding MicroPlate (650901, Greiner).
(§4) Subsequently, myostatin (788-G8/CF, R&D systems), GDF-11 (1958-GD-G8/CF, R&D systems), or activin A (338-AC-010/CF, R&D systems) was each added at a final concentration of 3 ng/mL. The plate was sealed with Parafilm, and incubated in a CO2 incubator (37°C, 5% CO2) for 30 min. The samples were added at 50 µL/well to a plate containing HEK-Blue (trademark) TGF-β Cells, and incubated in a CO2 incubator (37°C, 5% CO2) for 24 hours.
(§5) To each well of a UV-Star µClear 96-well (655801, Greiner), 180 µL of Detection buffer (prepared by diluting, with 17.64 mL of distilled water, 180 µL of QUANTI-Blue buffer and 180 µL of QUANTI-Blue solution) was dispensed. Here, 20 µL of the supernatant of the culture medium was transferred to the above Detection buffer and stirred with a shaker for 1 min. The plate was covered and incubated in a CO2 incubator for 3 to 5 hours, and absorbance was measured (Envision 2104, PerkinElmer, 620 nm/bp 40 nm). Based on the absorbance, IC50 values of the peptide were calculated using software (Prism 9, GraphPad).

Myostatin [2] = test: as above
Method: as §1, §2, §3, §4, §5

Myostatin [3] = target: T1, Myostatin; test: Reporter gene assay for myostatin signaling in HepG2 cell line, Evaluation Procedure (1), myostatin inhibition; conditions: Method A: Myostatin 10 ng/mL; read-out: IC50 (Luciferase) Myostatin HepG2
Procedure, shortened: (§6)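 HepG2 cells transfected with pGL3(CAGA)12-luciferase reporter, serum-starved in 0.1% BSA medium, then stimulated with myostatin or GDF-11 plus 4-fold peptide dilutions (0.006–100 nmol/L for myostatin, 0.12–2000 nmol/L for GDF-11) for 20–24 h at 37 °C. Luminescence read with One-Glo; IC50 calculated.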

Myostatin [4] = test: as above; conditions: Method A; GDF-11 IC50 versus Myostatin IC50
Procedure, shortened: as §6

With `CCCCCCC[C@@H]1NC(=O)[C@H](Cc2ccccc2)N(C)C(=O)[C@H](CCCNC(=N)N)NC(=O)[C@H](Cc2ccc(C(=O)O)cc2)NC(=O)[C@H](Cc2cccc(OCC(=O)O)c2)NC(=O)[C@H](C)N(C)C(=O)[C@H]([C@@H](C)CC)NC(=O)[C@H](Cc2ccccc2)N(C)C(=O)[C@H](Cc2ccc(O)cc2)NC(=O)[C@H](Cc2c[nH]c3ccccc23)NC(=O)[C@H](C)NC(=O)CN(CCCC(=O)O)C(=O)CSC[C@H](C(=O)O)NC(=O)[C@H](Cc2ccccc2)N(C)C(=O)[C@H](C)N(C)C1=O` [Myostatin_99_v145] ({CH2CO}-[Gly(N(CH2)3COOH)]AWY[NMeF]I[NMeA][Phe(3-OCH2COOH)][Phe(4-COOH)]R[NMeF][X1][NMeA][NMeF][dC]-OH; thioether N-15) the IC50 (Myostatin [1]; read-out: IC50 (nmol/L) Myostatin) was 0.23 nmol/L, the IC90 (Myostatin [1]; read-out: IC90 (nmol/L) Myostatin) was 0.64 nmol/L and the “Selectivity (GDF11/myostatin)” value (Myostatin [2]; from IC50) was 270. For the same molecule, the “Selectivity (GDF11/myostatin)” value (Myostatin [2]; from IC90) was 1,088, the IC50 (Myostatin [3]) was 1600 pM and the Selectivity (Myostatin [4]) was 259.
